Assay results from US11382946B2, “Multi-functional peptides and use thereof” (NOVACELL TECHNOLOGY INC., priority 2019, dated 2022).
pEC50: −log10 of the molar value. Non-standard residues stand in square brackets, D forms with d. Residues, ends and D or L forms follow the SMILES beside them. *: point of attachment. 2Nal = N[C@@H](Cc1ccc2ccccc2c1)C(=O)O; Nle = CCCC[C@H](N)C(=O)O; Octanoyl = CCCCCCCC(=O)*

How the values were obtained:
FPR2 = molecular target: T1, FPR2 (Homo sapiens, UniProt P25090); test: FPR2 activation by intracellular calcium ion increase (Fura-2/AM) in FPR2-RBL cells; type: cell-based; details: RBL cells overexpressing FPR2
T1 construct: expressed in transfected cells; host or cells: RBL cells overexpressing FPR2 (FPR2-RBL)
T1 sequence (P25090 1-351): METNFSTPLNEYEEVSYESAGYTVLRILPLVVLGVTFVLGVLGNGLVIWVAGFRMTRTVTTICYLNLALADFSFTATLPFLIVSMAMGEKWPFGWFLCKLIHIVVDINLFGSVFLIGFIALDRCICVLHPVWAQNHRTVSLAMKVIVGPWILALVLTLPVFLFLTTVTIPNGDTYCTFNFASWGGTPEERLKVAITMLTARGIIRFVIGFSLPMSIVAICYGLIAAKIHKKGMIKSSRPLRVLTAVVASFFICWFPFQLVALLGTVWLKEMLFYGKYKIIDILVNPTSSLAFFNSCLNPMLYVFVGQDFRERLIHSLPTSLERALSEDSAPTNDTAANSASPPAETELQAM
Protocol: The present inventors observed a change in calcium ion permeability of the candidate peptides according to an embodiment of the present invention in order to determine whether they can activate the immunomodulatory function in a body or not. Particularly, intracellular concentration of calcium ions was measured to confirm that the peptide activates FPR2. RBL cells that do neither express FPR1 nor FPR2, RBL cells overexpressed FPR1 (FPR1-RBL) and RBL cells that overexpressed FPR2 (FPR2-RBL) were used and Fura-2/AM which is a fluorophore having high binding affinity to calcium in order to measure intracellular calcium ion level sensitively. For this purpose, cells were cultured in RPMI medium supplemented with 10% fetal bovine serum and harvested by centrifugation in log phase (mid-log phase, 1-3×10^7 cells/ml), and then washed several times with RPMI medium not supplemented with fetal bovine serum, and then the cells were resuspended in RPMI medium to 1×10^7 cells/ml. Subsequently, a final 3 μM concentration of Fura-2/AM was added and the cells were incubated for 45 minutes in a 37° C., 5% CO2 incubator. After the appropriated time, the cells are harvested, washed again with RPMI medium, and then suspended in the appropriate amount of RPMI medium supplemented with 250 μM of sulfinpyrazone, in order to prevent loss of Fura-2 entering the cells. About 2×10^6 cells were taken each time, harvested by rapid centrifugation, and resuspended in 1 ml of a Locke solution without addition of calcium ions and EGTA added, and the ratio of absorbance at two wavelengths of 340 nm and 380 nm on a spectrophotometer were monitored by treating the peptides according to an embodiment of the present invention at different concentrations (1 μM, 0.1 μM, and 0.01 μM) at intervals of about 1 minute, and then the difference in absorbance at two wavelengths was investigated. It was converted to the concentration of free calcium ions into cells according to the method of Grynkiewicz.

S. aureus = type: cell-based, Staphylococcus aureus; details: 18 h
Protocol: (§1) The present inventors evaluated […] in order to select peptides showing excellent performance among various peptides synthesized in the Example 1. Particularly, in order to measure the antimicrobial activity of the peptide, after preparing Gram-positive bacteria Staphylococcus aureus (S. aureus) and Gram-negative bacteria Pseudomonas aeruginosa (P. aeruginosa), the bacteria were plated on agar plate medium by fourth streaking and cultured overnight in a 36° C. incubator. The next day, the strain colonies produced on the agar plate medium were inoculated into 3 ml nutrient medium and cultured overnight in a stirring incubator at 36° C. and 220 rpm. The next day, the bacteria were diluted to measure absorbance at 600 nm, adjusted to OD600=0.5, and diluted in a 1:100 ratio in nutrient medium. Then, the peptides prepared in the above Examples were serially diluted in concentrations of 0, 1.25, 2.5, 5, 10, and 20 μM in a nutrient medium to prepare 1 ml each, and then inoculated with 1 ml of the diluted bacteria. Subsequently, the mixture was stirred under conditions of 36° C. and 220 rpm, and incubated for 18 hours, and absorbance at 600 nm was measured.
(§2) As a result, 20 peptides showing high antibacterial activity against P. aeruginosa and S. aureus) were selected (FIGS. 2 and 3).

P. aeruginosa = type: cell-based, Pseudomonas aeruginosa; details: 18 h
Protocol: as §1, §2

SMILES | pEC50 (FPR2) | Antimicrobial activity (IC50, μg/ml) S. aureus (S. aureus) [µg/mL] | Antimicrobial activity (IC50, μg/ml) P. aeruginosa (P. aeruginosa) [µg/mL]
CCCCCCCC(=O)N[C@@H](CCCCN)C(=O)N[C@@H](Cc1ccccc1)C(=O)N[C@@H](CCCCN)C(=O)N[C@@H](Cc1c[nH]c2ccccc12)C(=O)N[C@@H](CCCC)C(=O)N[C@@H](Cc1ccc(O)cc1)C(=O)N[C@H](CCSC)C(N)=O [Peptide V3, Oct-KFKW-Nle-Ym-NH2] (Octanoyl-KFKW[Nle]Y[dM]-NH2) | 6.97 | 15.2 | 
CCCCCCCC(=O)N[C@@H](CCCCN)C(=O)N[C@@H](Cc1c[nH]c2ccccc12)C(=O)N[C@@H](CCCCN)C(=O)N[C@@H](Cc1c[nH]c2ccccc12)C(=O)N[C@@H](CCCC)C(=O)N[C@@H](Cc1ccc(O)cc1)C(=O)N[C@H](CCSC)C(N)=O [Peptide V4, Oct-KWKW-Nle-Ym-NH2] (Octanoyl-KWKW[Nle]Y[dM]-NH2) | 7.19 | 5.1 | 
CCCCCCCC(=O)N[C@@H](CCCNC(=N)N)C(=O)N[C@@H](Cc1c[nH]c2ccccc12)C(=O)N[C@@H](CCCNC(=N)N)C(=O)N[C@@H](Cc1c[nH]c2ccccc12)C(=O)N[C@@H](CCCC)C(=O)N[C@@H](Cc1ccc(O)cc1)C(=O)N[C@H](CCSC)C(N)=O [Peptide V5, Oct-RWRW-Nle-Ym-NH2] (Octanoyl-RWRW[Nle]Y[dM]-NH2) | 7.38 | 2.0 | >50

Continued, values first:

pEC50 (FPR2) | Antimicrobial activity (IC50, μg/ml) S. aureus (S. aureus) [µg/mL] | Antimicrobial activity (IC50, μg/ml) P. aeruginosa (P. aeruginosa) [µg/mL] | SMILES
8.38 | >50 |  | CCCCCCCC(=O)N[C@@H](CCCCN)C(=O)N[C@@H](Cc1ccccc1)C(=O)N[C@@H](CCCCN)C(=O)N[C@@H](Cc1c[nH]c2ccccc12)C(=O)N[C@@H](CCCNC(=N)N)C(=O)N[C@@H](Cc1ccc(O)cc1)C(=O)N[C@@H](CCSC)C(=O)N[C@H](C(=O)N[C@H](CCSC)C(N)=O)C(C)C [Peptide V6, Oct-KFKWRYMVm-NH2] (Octanoyl-KFKWRYMV[dM]-NH2)
8.19 | 13.0 | 24.4 | CCCCCCCC(=O)N[C@@H](CCCNC(=N)N)C(=O)N[C@@H](Cc1c[nH]c2ccccc12)C(=O)N[C@@H](CCCNC(=N)N)C(=O)N[C@@H](Cc1c[nH]c2ccccc12)C(=O)N[C@@H](CCCNC(=N)N)C(=O)N[C@@H](Cc1ccc(O)cc1)C(=O)N[C@@H](CCSC)C(=O)N[C@H](C(=O)N[C@H](CCSC)C(N)=O)C(C)C [Peptide V8, Oct-RWRWRYMVm-NH2] (Octanoyl-RWRWRYMV[dM]-NH2)
8.33 | 12.7 |  | CCCCCCCC(=O)N[C@@H](CCCNC(=N)N)C(=O)N[C@@H](Cc1c[nH]c2ccccc12)C(=O)N[C@@H](CCCNC(=N)N)C(=O)N[C@@H](Cc1c[nH]c2ccccc12)C(=O)N[C@@H](CCCNC(=N)N)C(=O)N[C@@H](Cc1c[nH]c2ccccc12)C(=O)N[C@@H](CCSC)C(=O)N[C@H](C(=O)N[C@H](CCSC)C(N)=O)C(C)C [Peptide V9, Oct-RWRWRWMVm-NH2] (Octanoyl-RWRWRWMV[dM]-NH2)
 | 2.7 | 7.3 | CCCCCCCC(=O)N[C@@H](CCCNC(=N)N)C(=O)N[C@@H](Cc1c[nH]c2ccccc12)C(=O)N[C@@H](CCCNC(=N)N)C(=O)N[C@@H](Cc1c[nH]c2ccccc12)C(=O)N[C@@H](Cc1ccc2ccccc2c1)C(=O)N[C@@H](Cc1c[nH]c2ccccc12)C(N)=O [Peptide V16, Oct-RWRWZW-NH2] (Octanoyl-RWRW[2Nal]W-NH2)
 | 30.2 | 4.3 | N=C(N)NCCC[C@H](NC(=O)[C@H](Cc1c[nH]c2ccccc12)NC(=O)[C@@H](N)CCCNC(=N)N)C(=O)N[C@@H](Cc1c[nH]c2ccccc12)C(=O)N[C@@H](Cc1ccc2ccccc2c1)C(=O)N[C@@H](Cc1c[nH]c2ccccc12)C(N)=O [Peptide V16_0, RWRWZW-NH2] (H-RWRW[2Nal]W-NH2)
